Measurements reported in patent publication US6218406A, “Farnesyl transferase inhibitors, their preparation, the pharmaceutical compositions which contain them and their use in the preparation of medicaments” (Aventis Pharma S.A., priority 1996, dated 2001).

Each molecule was assayed against farnesyl transferase (Homo sapiens, UniProt P49354+P49356) (assay: Farnesyl transferase inhibition, [3H]-farnesylation of biotinylated K-ras C-terminal peptide (SPA assay)). Conditions: In vitro inhibitory activity (K-Ras) IC50, K-Ras substrate; 60 min at 37° C.; mean of two IC50 values.
Format: biochemical

SMILES | IC50 [nM]
COc1ccccc1CC(=O)N1C[C@H]2[C@@]3(c4ccc(C)cc4)CC[C@H](c4ccccc43)[C@@]2(C(=O)O)C1 (relative stereo) [Example 5, (3aRS,4SR,9SR,9aRS)-4,9-ethano-2-[(2-methoxyphenyl)acetyl]-9-(4-methylphenyl)-2,3,3a,4,9,9a-hexahydro-1H-benzo[f]isoindole-3a-carboxylic Acid] | 50
C=C(C(=O)N1C[C@H]2[C@@]3(c4ccc(C)s4)CC[C@@H](c4ccccc43)[C@]2(C(=O)O)C1)c1ccccc1OC (racemic) [Example 48, (3aRS,4SR,9SR,9aRS)-4,9-ethano-2-[2-(2-methoxyphenyl)propenoyl]-9-(5-methyl-2-thienyl)-2,3,3a,4,9,9a-hexahydro-1H-benzo[f]isoindole-3a-carboxylic Acid] | 95
C=C(C(=O)N1C[C@@H]2[C@@]3(c4ccsc4)CC[C@@H](c4ccccc43)[C@]2(C(=O)O)C1)c1ccccc1OC (racemic) [Example 58, (3aRS,4SR,9SR,9aRS)-4,9-ethano-2-[2-(2-methoxyphenyl)propenoyl]-9-(3-thienyl)-2,3,3a,4,9,9a-hexahydro-1H-benzo[f]isoindole-3a-carboxylic Acid] | 138

Same assay, conditions: K-Ras substrate; 60 min at 37° C.; mean of two IC50 values; read-out: In vitro inhibitory activity (K-Ras) IC50

SMILES | IC50 [nM]
C=C(C(=O)N1C[C@@H]2[C@]3(c4ccc5c(c4)OCCO5)CC[C@@H](c4ccccc43)[C@]2(C(=O)NCc2cccs2)C1)c1ccccc1OC (relative stereo) [Example 36, (3aRS,4SR,9SR,9aRS)-9-(2,3-dihydro-1,4-benzodioxin-6-yl)-4,9-ethano-2-[2-(2-methoxyphenyl)propenoyl]-2,3,3a,4,9,9a-hexahydro-1H-benzo[f]isoindole-3a-N-(2-thienylmethyl)carboxamide] | 120
C=C(C(=O)N1C[C@@H]2[C@]3(c4ccc(C)cc4)CC[C@@H](c4c(OC)cccc43)[C@]2(C(=O)OC)C1)c1ccccc1OC (racemic) [Example 98, methyl (3aRS,4SR,9SR,9aRS)-4,9-ethano-5-methoxy-2-[2-(2-methoxyphenyl)propenoyl]-9-(4-methylphenyl)-2,3,3a,4,9,9a-hexahydro-1H-benzo[f]isoindole-3a-carboxylate] | 663
C=C(C(=O)N1C[C@H]2[C@@]3(c4ccc(N(C)C)cc4)CC[C@H](c4ccccc43)[C@@]2(C(=O)OC)C1)c1ccccc1OC (relative stereo) [Example 94, methyl (3aRS,4SR,9SR,9aRS)-9-(4-N,N-dimethylaminophenyl)-4,9-ethano-2-[2-(2-methoxyphenyl)propenoyl]-2,3,3a,4,9,9a-hexahydro-1H-benzo[f]-isoindole-3a-carboxylate] | 557
C=C(C(=O)N1C[C@H]2[C@@]3(c4ccc(C)cc4)CC[C@H](c4ccccc43)[C@@]2(C(=O)NCc2ccc[n+]([O-])c2)C1)c1ccccc1OC (relative stereo) [Example 26, (3aRS,4SR,9SR,9aRS)-4,9-ethano-2-[2-(2-methoxyphenyl)-propenoyl]-9-(4-methylphenyl)-2,3,3a,4,9,9a-hexahydro-1H-benzo[f]isoindole-3a-N-(N-oxo-3-pyridyl)methylcarboxamide] | 145
C=C(C(=O)N1C[C@@H]2[C@]3(c4ccc(CC)cc4)CC[C@@H](c4ccccc43)[C@]2(C(=O)O)C1)c1ccccc1OC (racemic) [Example 60, (3aRS,4SR,9SR,9aRS)-4,9-ethano-9-(4-ethylphenyl)-2-[2-(2-methoxyphenyl)propenoyl]-2,3,3a,4,9,9a-hexahydro-1H-benzo[f]isoindole-3a-carboxylic Acid] | 124
C=C(C(=O)N1C[C@@H]2[C@]3(c4ccc(CC)cc4)CC[C@@H](c4ccccc43)[C@]2(C(=O)OC)C1)c1ccccc1OC (racemic) [Example 59, methyl (3aRS,4SR,9SR,9aRS)-4,9-ethano-9-(4-ethylphenyl)-2-[2-(2-methoxyphenyl)propenoyl]-2,3,3a,4,9,9a-hexahydro-1H-benzo[f]isoindole-3a-carboxylate] | 408
C=C(C(=O)N1C[C@@H]2[C@]3(c4cccc(Cl)c4)CC[C@@H](c4ccccc43)[C@]2(C(=O)OC)C1)c1ccccc1OC (racemic) [Example 88, methyl (3aRS,4SR,9SR,9aRS)-9-(3-chlorophenyl)-4,9-ethano-2-[2-(2-methoxyphenyl)propenoyl]-2,3,3a,4,9,9a-hexahydro-1H-benzo[f]isoindole-3a-carboxylate] | 404
C=C(C(=O)N1C[C@@H]2[C@]3(c4ccc(C(F)(F)F)cc4)CC[C@@H](c4ccccc43)[C@]2(C(=O)OC)C1)c1ccccc1OC (racemic) [Example 39, methyl (3aRS,4SR,9SR,9aRS)-4,9-ethano-2-[2-(2-methoxyphenyl)propenoyl]-9-[4-(trifluoromethyl)phenyl]-2,3,3a,4,9,9a-hexahydro-1H-benzo[f]isoindole-3a-carboxylate] | 273
C=C(C(=O)N1C[C@@H]2[C@]3(c4ccc(Cl)c(F)c4)CC[C@@H](c4ccccc43)[C@]2(C(=O)OC)C1)c1ccccc1OC (racemic) [Example 66, methyl (3aRS,4SR,9SR,9aRS)-9-(4-chloro-3-fluorophenyl)-4,9-ethano-2-[2-(2-methoxyphenyl)-propenoyl]-2,3,3a,4,9,9a-hexahydro-1H-benzo[f]isoindole-3a-carboxylate] | 379

Now from value to molecule:

IC50 [nM] | SMILES
83 | C=C(C(=O)N1C[C@@H]2[C@]3(c4ccc(C(F)(F)F)cc4)CC[C@@H](c4ccccc43)[C@]2(C(=O)NCc2cccnc2)C1)c1ccccc1OC (relative stereo) [Example 42, (3aRS,4SR,9SR,9aRS)-4,9-ethano-2-[2-(2-methoxyphenyl)propenoyl]-9-[4-(trifluoromethyl)phenyl]-2,3,3a,4,9,9a-hexahydro-1H-benzo[f]isoindole-3a-N-(3-pyridylmethyl)carboxamide]
< 20 | C=C(C(=O)N1C[C@H]2[C@@]3(c4ccc5c(c4)OCCO5)CC[C@H](c4ccccc43)[C@@]2(C(=O)NCc2cccnc2)C1)c1ccccc1OC (single isomer, unassigned) [Example 34, dextrorotatory enantiomer of (3aRS,4SR,9SR,9aRS)-9-(2,3-dihydro-1,4-benzodioxin-6-yl)-4,9-ethano-2-[2-(2-methoxyphenyl)propenoyl]-2,3,3a,4,9,9a-hexahydro-1H-benzo[f]isoindole-3a-N-(3-pyridylmethyl)carboxamide]
18 | C=C(C(=O)N1C[C@@H]2[C@]3(c4ccc(C)cc4)CC[C@@H](c4c(OC)cccc43)[C@]2(C(=O)O)C1)c1ccccc1OC (racemic) [Example 99, (3aRS,4SR,9SR,9aRS)-4,9-ethano-5-methoxy-2-[2-(2-methoxyphenyl)propenoyl]-9-(4-methylphenyl)-2,3,3a,4,9,9a-hexahydro-1H-benzo[f]isoindole-3a-carboxylic Acid]
99 | C=C(C(=O)N1C[C@@H]2[C@]3(c4ccccc4C)CC[C@@H](c4ccccc43)[C@]2(C(=O)O)C1)c1ccccc1OC (racemic) [Example 38, (3aRS,4SR,9SR,9aRS)-4,9-ethano-2-[2-(2-methoxyphenyl)propenoyl]-9-(2-methylphenyl)-2,3,3a,4,9,9a-hexahydro-1H-benzo[f]isoindole-3a-carboxylic Acid]
45 | COc1ccccc1CC(=O)N1C[C@@H]2[C@]3(c4ccc(C)c(C)c4)CC[C@@H](c4ccccc43)[C@]2(C(=O)O)C1 (racemic) [Example 12, (3aRS,4SR,9SR,9aRS)-9-(3,4-dimethyl-phenyl)-4,9-ethano-2-[(2-methoxyphenyl)acetyl]-2,3,3a,4,9,9a-hexahydro-1H-benzo[f]isoindole-3a-carboxylic Acid]
59 | C=C(C(=O)N1C[C@@H]2[C@]3(c4ccc(Br)cc4)CC[C@@H](c4ccccc43)[C@]2(C(=O)O)C1)c1ccccc1OC (racemic) [Example 50, (3aRS,4SR,9SR,9aRS)-9-(4-bromophenyl)-4,9-ethano-2-[2-(2-methoxyphenyl)propenoyl]-2,3,3a,4,9,9a-hexahydro-1H-benzo[f]isoindole-3a-carboxylic Acid]
64 | C=C(C(=O)N1C[C@H]2[C@@]3(c4cccc(F)c4)CC[C@H](c4ccccc43)[C@@]2(C(=O)NCc2cccnc2)C1)c1ccccc1OC (relative stereo) [Example 87, (3aRS,4SR,9SR,9aRS)-4,9-ethano-9-(3-fluorophenyl)-2-[2-(2-methoxyphenyl)propenoyl]-2,3,3a,4,9,9a-hexahydro-1H-benzo[f]isoindole-3a-N-(3-pyridylmethyl)carboxamide]
101 | C=C(C(=O)N1C[C@@H]2[C@]3(c4ccc(Cl)c(F)c4)CC[C@@H](c4ccccc43)[C@]2(C(=O)O)C1)c1ccccc1OC (racemic) [Example 67, (3aRS,4SR,9SR,9aRS)-9-(4-chloro-3-fluorophenyl)-4,9-ethano-2-[2-(2-methoxyphenyl)propenoyl]-2,3,3a,4,9,9a-hexahydro-1H-benzo[f]isoindole-3a-carboxylic Acid]
54 | C=C(C(=O)N1C[C@H]2[C@@]3(c4ccc(C)cc4)CC[C@H](c4ccccc43)[C@@]2(C(=O)NN(C)c2ccccc2)C1)c1ccccc1OC (relative stereo) [Example 28, (3aRS,4SR,9SR,9aRS)-4,9-ethano-2-[2-(2-methoxyphenyl)propenoyl]-9-(4-methylphenyl)-2,3,3a,4,9,9a-hexahydro-1H-benzo[f]isoindole-3a-N'-methyl-N'-phenylcarbohydrazide]
< 19 | C=C(C(=O)N1C[C@@H]2[C@]3(c4ccc(OC)cc4)CC[C@@](C)(c4ccccc43)[C@@]2(C(=O)O)C1)c1ccccc1OC (racemic) [Example 101, (3aRS,4SR,9SR,9aRS)-4,9-ethano-2-[2-(2-methoxyphenyl)propenoyl]-9-(4-methoxyphenyl)-4-methyl-2,3,3a,4,9,9a-hexahydro-1H-benzo[f]isoindole-3a-carboxylic Acid]
111 | C=C(C(=O)N1C[C@@H]2[C@]3(c4ccc(C)cc4)CC[C@@H](c4ccccc43)[C@]2(C(=O)NOC)C1)c1ccccc1OC (racemic) [Example 21, Methyl (3aRS,4SR,9SR,9aRS)-4,9-ethano-2-[2-(2-methoxyphenyl)propenoyl]-9-(4-methylphenyl)-2,3,3a,4,9,9a-hexahydro-1H-benzo[f]isoindole-3a-hydroxamate]
